# Reference: ChEMBL document CHEMBL3745627, “A Methylene Group on C-2 of 24,24-Difluoro-19-nor-1α,25-dihydroxyvitamin D3 Markedly Increases Bone Calcium Mobilization in Vivo” (J Med Chem, 2015)
# Key:
# Vitamin D3 receptor = molecular target: T1, Vitamin D3 receptor (Rattus norvegicus, UniProt P13053); experiment: Displacement of [3H]1alpha,25-(OH)2D3 from full-length recombinant rat VDR by scintillation counter
# T1 sequence (P13053 whole entry): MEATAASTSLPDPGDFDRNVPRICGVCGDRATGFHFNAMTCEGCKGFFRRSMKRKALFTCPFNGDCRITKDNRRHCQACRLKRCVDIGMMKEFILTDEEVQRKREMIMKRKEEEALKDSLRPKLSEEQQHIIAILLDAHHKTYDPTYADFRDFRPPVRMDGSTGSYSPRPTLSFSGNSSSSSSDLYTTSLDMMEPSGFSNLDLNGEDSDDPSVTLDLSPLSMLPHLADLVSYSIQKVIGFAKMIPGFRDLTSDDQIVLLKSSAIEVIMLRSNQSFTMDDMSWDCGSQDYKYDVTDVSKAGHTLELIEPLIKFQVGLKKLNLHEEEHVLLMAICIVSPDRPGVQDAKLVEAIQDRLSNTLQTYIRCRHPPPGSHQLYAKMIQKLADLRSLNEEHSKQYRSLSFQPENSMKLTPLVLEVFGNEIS
# HL-60 [1] = experiment: Induction of human HL60 cell differentiation assessed as differentiation from promyelocytes to monocytes by NBT assay; type: functional; conditions: read-out: ED50 (the source's name)
# HL-60 [2] = experiment: Potency index, ratio ED50 of 1alpha,25-(OH)2D3 to ED50 of compound for induction of human HL60 cell differentiation; type: functional
# [3] = molecular target: T2, Vitamin D3 receptor (Rattus norvegicus) (UniProt P13053); experiment: Transactivation of VDR in rat osteosarcoma cells assessed as 24-hydroxylase transcriptional activity by luciferase reporter gene assay; type: cell-based
# T2 sequence (whole entry): T1 sequence (P13053 whole entry)
# Rattus norvegicus [4] = experiment: Induction of bone mobilization activity in weaning Sprague-Dawley rat assessed as increase in serum calcium level at 780 pmol, ip for 4 consecutive dose at an interval of 24 hrs measured 24 hrs after last dose (reference value: 4.4 to 4.5 mg/dl); type: functional
# Rattus norvegicus [5] = experiment: Induction of bone mobilization activity in weaning Sprague-Dawley rat assessed as increase in serum calcium level at 260 pmol, ip for 4 consecutive dose at an interval of 24 hrs measured 24 hrs after last dose (reference value: 4.4 to 4.5 mg/dl); type: functional
# Rattus norvegicus [6] = experiment: Induction of bone mobilization activity in weaning Sprague-Dawley rat assessed as increase in serum calcium level at 32 pmol, ip for 4 consecutive dose at an interval of 24 hrs measured 24 hrs after last dose (reference value: 4.4 to 4.5 mg/dl); type: functional
# Rattus norvegicus [7] = experiment: Induction of intestinal calcium transport in weaning Sprague-Dawley rat assessed as ratio of calcium level in serosal to mucosal at 780 pmol, ip for 4 consecutive dose at an interval of 24 hrs measured 24 hrs after last dose (reference value: 3.7 to 4.8); type: functional
# Rattus norvegicus [8] = experiment: Induction of intestinal calcium transport in weaning Sprague-Dawley rat assessed as ratio of calcium level in serosal to mucosal at 260 pmol, ip for 4 consecutive dose at an interval of 24 hrs measured 24 hrs after last dose (reference value: 3.7 to 4.8); type: functional
# Rattus norvegicus [9] = experiment: Induction of intestinal calcium transport in weaning Sprague-Dawley rat assessed as ratio of calcium level in serosal to mucosal at 32 pmol, ip for 4 consecutive dose at an interval of 24 hrs measured 24 hrs after last dose (reference value: 3.7 to 4.8); type: functional
# Rattus norvegicus [10] = experiment: Induction of bone mobilization activity in weaning Sprague-Dawley rat assessed as increase in serum calcium level at 16 pmol, ip for 4 consecutive dose at an interval of 24 hrs measured 24 hrs after last dose (reference value: 4.4 to 4.5 mg/dl); type: functional
# Rattus norvegicus [11] = experiment: Induction of bone mobilization activity in weaning Sprague-Dawley rat assessed as increase in serum calcium level at 87 pmol, ip for 4 consecutive dose at an interval of 24 hrs measured 24 hrs after last dose (reference value: 4.4 to 4.5 mg/dl); type: functional
# Rattus norvegicus [12] = experiment: Induction of intestinal calcium transport in weaning Sprague-Dawley rat assessed as ratio of calcium level in serosal to mucosal at 16 pmol, ip for 4 consecutive dose at an interval of 24 hrs measured 24 hrs after last dose (reference value: 3.7 to 4.8); type: functional
SMILES,Ki (Vitamin D3 receptor),EC50 (HL-60 [1]),Ratio ED50 (HL-60 [2]),ED50 [3],Activity (Rattus norvegicus [4]),Activity (Rattus norvegicus [5]),Activity (Rattus norvegicus [6]),Ratio (Rattus norvegicus [7]),Ratio (Rattus norvegicus [8]),Ratio (Rattus norvegicus [9]),Activity (Rattus norvegicus [10]),Activity (Rattus norvegicus [11]),Ratio (Rattus norvegicus [12])
C=C1[C@H](O)CC(=C/C=C2\CCC[C@]3(C)[C@@H]([C@H](C)CCC(F)(F)C(C)(C)O)CC[C@@H]23)C[C@H]1O,0.04 nM,0.1 nM,30,0.01 nM,11.2 mg/dL,9.4 mg/dL,6 mg/dL,16.4,11.6,11.7,,,
C=C1/C(=C\C=C2/CCC[C@]3(C)[C@@H]([C@H](C)CCCC(C)(C)O)CC[C@@H]23)C[C@@H](O)C[C@@H]1O [CALCITRIOL],,,,,7.6 mg/dL,,,,,,5.3 mg/dL,6.6 mg/dL,
C[C@@H](CCC(F)(F)C(C)(C)O)[C@H]1CC[C@H]2/C(=C/C=C3C[C@@H](O)C[C@H](O)C3)CCC[C@]12C,0.03 nM,0.06 nM,50,0.04 nM,9.8 mg/dL,8.5 mg/dL,,11.5,8.8,,5.8 mg/dL,,6.6
C=C1[C@H](O)CC(=C/C=C2\CCC[C@]3(C)[C@@H]([C@@H](C)CCC(F)(F)C(C)(C)O)CC[C@@H]23)C[C@H]1O,0.03 nM,0.03 nM,100,0.02 nM,9.8 mg/dL,9.5 mg/dL,,8.7,12.4,,5.8 mg/dL,,6.6
C[C@H](CCC(F)(F)C(C)(C)O)[C@H]1CC[C@H]2/C(=C/C=C3C[C@@H](O)C[C@H](O)C3)CCC[C@]12C,0.02 nM,0.05 nM,60,0.04 nM,5.9 mg/dL,4.9 mg/dL,4.9 mg/dL,7.7,6.9,9.4,,,
C=C1[C@H](O)CC(=C/C=C2\CCC[C@]3(C)[C@@H]([C@H](C)CCCC(C)(C)O)CC[C@@H]23)C[C@H]1O,0.03 nM,0.02 nM,150,0.007 nM,,,,,,,,,
